Measured values taken from PMC6858373 (Scientific Reports, 2019).
Read-outs that look alike come from different tables or passages of the source.

Legend:
[1] = biological target: T1, FGF14:Nav1.6 C-tail complex (Homo sapiens, UniProt Q92915+Q9UQD0); test: Split-luciferase complementation assay (LCA) in Clone V double stable HEK293 cells; format: cell-based; settings: for Split Luciferase Assay % Lum Set 1 / Split Luciferase Assay Z-score Set 1: biological replicate Set 1; for Split Luciferase Assay % Lum Set 1 / Split Luciferase Assay %Lum Set 2: normalized to on-plate 0.3% DMSO controls (n=16 per plate); for Split Luciferase Assay %Lum Set 2 / Split Luciferase Assay Z-score Set 2: biological replicate Set 2; for Split Luciferase Assay Z-score Set 1 / Split Luciferase Assay Z-score Set 2: normalized to on-plate 0.3% DMSO controls; for Split Luciferase Assay %Lum Avg: average of Set 1 and Set 2, normalized to 0.3% DMSO controls
T1 construct: polymerase chain reaction (PCR) amplification of the FGF14 open reading frame (nt 1–855); C-terminal fragment of Nav1.6 (amino acids 1763–1976) fused with CD4ΔC-tail (amino acids 1–395); expressed in transfected cells

[2] = biological target: full-length P. pyralis luciferase (Photinus pyralis, UniProt P08659, K549A/L550V/N119G/N50D/S548I); format: cell-based
[3] = CC_NCI screening, LCA luminescence
[4] = CC_NCI screening, full-length luciferase counter-screen luminescence, normalized to on-plate 0.3% DMSO controls
[5] = CC_NCI screening, full-length luciferase counter-screen, normalized to on-plate 0.3% DMSO controls
[6] = CC_NCI screening, normalized to on-plate 0.3% DMSO controls

full-length P. pyralis luciferase, sequence (P08659 whole entry N50D/N119G/S548I/K549A/L550V, looked up): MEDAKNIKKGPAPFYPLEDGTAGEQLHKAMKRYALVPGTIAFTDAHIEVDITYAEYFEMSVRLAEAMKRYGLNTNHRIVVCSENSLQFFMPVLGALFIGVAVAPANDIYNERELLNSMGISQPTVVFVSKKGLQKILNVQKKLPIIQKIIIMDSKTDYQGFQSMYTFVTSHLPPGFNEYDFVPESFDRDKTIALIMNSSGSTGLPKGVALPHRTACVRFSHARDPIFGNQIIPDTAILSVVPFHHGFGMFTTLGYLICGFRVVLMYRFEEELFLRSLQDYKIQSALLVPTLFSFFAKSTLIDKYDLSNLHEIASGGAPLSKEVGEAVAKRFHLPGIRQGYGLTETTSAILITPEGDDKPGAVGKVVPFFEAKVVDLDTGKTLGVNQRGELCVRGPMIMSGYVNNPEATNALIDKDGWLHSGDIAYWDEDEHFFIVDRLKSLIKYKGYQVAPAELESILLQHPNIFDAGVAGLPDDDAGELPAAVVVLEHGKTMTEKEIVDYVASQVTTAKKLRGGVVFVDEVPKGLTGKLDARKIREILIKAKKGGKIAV
T1 sequence (Q92915 1-252 isoform Q92915-2): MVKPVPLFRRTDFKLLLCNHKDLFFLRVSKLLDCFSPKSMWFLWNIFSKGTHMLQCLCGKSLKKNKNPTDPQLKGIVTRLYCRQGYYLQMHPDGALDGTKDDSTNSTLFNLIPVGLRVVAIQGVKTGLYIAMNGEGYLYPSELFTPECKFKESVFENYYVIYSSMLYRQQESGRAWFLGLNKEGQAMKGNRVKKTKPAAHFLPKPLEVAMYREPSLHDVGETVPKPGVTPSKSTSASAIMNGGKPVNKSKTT
T1 sequence (Q9UQD0 1763-1976 limits assumed): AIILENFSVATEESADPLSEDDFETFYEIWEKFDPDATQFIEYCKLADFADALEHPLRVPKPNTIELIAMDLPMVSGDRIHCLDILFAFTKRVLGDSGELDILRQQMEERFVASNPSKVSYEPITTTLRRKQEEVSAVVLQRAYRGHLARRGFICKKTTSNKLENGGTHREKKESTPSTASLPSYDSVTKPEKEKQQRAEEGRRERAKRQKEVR

| SMILES | Split Luciferase Assay % Lum Set 1 [1, 3] [%] | Split Luciferase Assay %Lum Set 2 [1, 3] [%] | Split Luciferase Assay Z-score Set 1 ([1]; CC_NCI screening, LCA) | Split Luciferase Assay Z-score Set 2 ([1]; CC_NCI screening, LCA) | Split Luciferase Assay %Lum Avg ([1]; CC_NCI screening) [%] | Luciferase Assay % Lum [2, 4] [%] | Luciferase Assay Z-score [2, 5] | Toxicity Assay % Fluor (Clone V cells; human, 16 h, 30 µM) [%] | Toxicity Assay Z-score (Clone V cells; human, 16 h, 30 µM) | Split Luciferase Assay Z-score Set 1 ([1]; CC_NCI screening) | Split Luciferase Assay Z-score Set 2 ([1]; CC_NCI screening) | Split Luciferase Assay %Lum Set 2 ([1]; CC_NCI screening) [%] | Split Luciferase Assay %Lum Avg [1] [%] | Toxicity Assay % Fluor (CTB cell viability fluorescence) (Clone V cells) [%] | Toxicity Assay Z-score (CTB cell viability) (Clone V cells) | Split Luciferase Assay % Lum Set 1 ([1]; CC_NCI screening) [%] | Luciferase Assay Z-score (full-length luciferase counter-screen) [2, 6] | also measured |
| --- | --- | --- | --- | --- | --- | --- | --- | --- | --- | --- | --- | --- | --- | --- | --- | --- | --- | --- |
| O=c1cc(-c2cccc3c2Sc2ccccc2S3)oc(N2CCOCC2)c1 [KU-55933] | 69.90 | 81.14 | -2.43 | -1.53 | 75.52 | 33.90 | -8.46 | 89.20 | -1.51 | – | – | – | – | – | – | – | – | – |
| CS(=O)(=O)CCNCc1ccc(-c2ccc3ncnc(Nc4ccc(OCc5cccc(F)c5)c(Cl)c4)c3c2)o1 [Lapatinib] | – | – | – | – | – | – | – | – | – | 1.35 | -1.87 | 76.98 | 96.81 | 114.10 | 1.97 | – | – | Luciferase Assay % Lum (full-length luciferase counter-screen) [2]: 75.39%; Luciferase Assay Z-score (full-length luciferase counter-screen) [2]: -3.15 |
| CN(C)C(=N)N=C(N)N [METFORMIN] | 117.73 | 114.43 | 1.43 | 1.17 | 116.08 | – | – | 91.06 | -1.25 | – | – | – | – | – | – | – | – | Luciferase Assay % Lum [2]: 96.22%; Luciferase Assay Z-score [2]: -0.48 |
| NC1(c2ccc(-c3nc4ccn5c(=O)[nH]nc5c4cc3-c3ccccc3)cc2)CCC1 [MK-2206] | 48.16 | 47.85 | -4.19 | -4.24 | 48.01 | 85.95 | -1.80 | 95.56 | -0.62 | – | – | – | – | – | – | – | – | – |
| Nc1ccccc1NC(=O)c1ccc(CNC(=O)OCc2cccnc2)cc1 [MS-275] | – | – | – | – | – | – | – | – | – | -2.96 | -2.38 | 70.74 | 67.06 | 101.17 | 0.16 | 63.38 | 0.92 | Luciferase Assay % Lum (full-length luciferase counter-screen) [2, 6]: 107.21% |
| Cl.N[C@@H](Cc1ccc(N(CCCl)CCCl)cc1)C(=O)O [Melphalan hydrochloride] | – | – | – | – | – | – | – | – | – | -1.64 | -0.10 | 98.83 | 89.26 | 107.21 | 1.01 | 79.68 | -1.86 | Luciferase Assay % Lum (full-length luciferase counter-screen) [2, 6]: 85.47% |
| O=C1c2c(O)ccc(O)c2C(=O)c2c(NCCNCCO)ccc(NCCNCCO)c21 [Mitoxantrone] | 5.76 | 15.60 | -7.62 | -6.87 | 10.68 | 40.29 | -7.65 | 90.67 | -1.30 | – | – | – | – | – | – | – | – | – |
| Cc1cn(-c2cc(NC(=O)c3ccc(C)c(Nc4nccc(-c5cccnc5)n4)c3)cc(C(F)(F)F)c2)cn1 [NILOTINIB] | 109.04 | 122.76 | 0.73 | 1.85 | 115.90 | 102.54 | 0.33 | – | – | – | – | – | – | – | – | – | – | Toxicity Assay % Fluor (Clone V cells): 88.70%; Toxicity Assay Z-score (Clone V cells): -1.58 |
| CCN(CC)CCCC(C)Nc1nc(C)cc(Nc2ccc3nc(C)cc(N)c3c2)n1 (stereo not shown) [NSC23766] | – | – | – | – | – | – | – | – | – | 0.12 | -0.01 | 99.87 | 100.65 | 111.37 | 1.59 | 101.43 | 0.79 | – |
| COc1ccc(OC)c2c(=S)c3ccccc3[nH]c12 [NSC 625987] | – | – | – | – | – | – | – | – | – | -1.20 | -1.20 | 85.31 | 85.21 | 109.17 | 1.28 | 85.12 | -2.77 | Luciferase Assay % Lum (full-length luciferase counter-screen) [2, 6]: 78.37% |
| CCNC(=O)c1noc(-c2cc(C(C)C)c(O)cc2O)c1-c1ccc(CN2CCOCC2)cc1 [NVP AUY922] | 40.55 | 50.98 | -4.80 | -3.99 | 45.76 | 86.39 | -1.74 | 88.69 | -1.58 | – | – | – | – | – | – | – | – | – |
| O=C(/C=C/c1ccc(CN(CCO)CCc2c[nH]c3ccccc23)cc1)NO [NVP LAQ824] | 93.82 | 83.22 | -0.50 | -1.36 | 88.52 | 95.25 | -0.61 | 98.78 | -0.17 | – | – | – | – | – | – | – | – | – |
| COc1cc(N2CCC(N3CCN(C)CC3)CC2)ccc1Nc1ncc(Cl)c(Nc2ccccc2S(=O)(=O)C(C)C)n1 [NVP TAE684] | – | – | – | – | – | – | – | – | – | -7.35 | -7.71 | 5.20 | 7.11 | 37.86 | -8.69 | 9.02 | -0.46 | Luciferase Assay % Lum (full-length luciferase counter-screen) [2, 6]: 96.39% |
| COc1nc(N)nc2c1ncn2[C@@H]1O[C@H](CO)[C@@H](O)[C@@H]1O [Nelarabine] | 129.69 | 114.43 | 2.40 | 1.17 | 122.06 | – | – | 90.75 | -1.29 | – | – | – | – | – | – | – | – | Luciferase Assay % Lum [2]: 93.91%; Luciferase Assay Z-score [2]: -0.78 |
| Cc1cn(-c2cc(NC(=O)c3ccc(C)c(Nc4nccc(-c5cccnc5)n4)c3)cc(C(F)(F)F)c2)cn1 [Nilotinib] | 126.43 | 113.39 | 2.14 | 1.09 | 119.91 | 94.65 | -0.68 | 85.20 | -2.07 | – | – | – | – | – | – | – | – | – |
